Consider 13 compounds from patent publication US20110190246A1, “ESTRATRIENE DERIVATIVES COMPRISING HETEROCYCLIC BIOISOSTERES FOR THE PHENOLIC A-RING” (Bayer Schering Pharma Aktiengesellschaft, priority 2008, published 2011).

Each structure is given as a SMILES string.

The target in data set [1] is T1, ERα (Homo sapiens, UniProt P03372).
T1 sequence (P03372 1-595): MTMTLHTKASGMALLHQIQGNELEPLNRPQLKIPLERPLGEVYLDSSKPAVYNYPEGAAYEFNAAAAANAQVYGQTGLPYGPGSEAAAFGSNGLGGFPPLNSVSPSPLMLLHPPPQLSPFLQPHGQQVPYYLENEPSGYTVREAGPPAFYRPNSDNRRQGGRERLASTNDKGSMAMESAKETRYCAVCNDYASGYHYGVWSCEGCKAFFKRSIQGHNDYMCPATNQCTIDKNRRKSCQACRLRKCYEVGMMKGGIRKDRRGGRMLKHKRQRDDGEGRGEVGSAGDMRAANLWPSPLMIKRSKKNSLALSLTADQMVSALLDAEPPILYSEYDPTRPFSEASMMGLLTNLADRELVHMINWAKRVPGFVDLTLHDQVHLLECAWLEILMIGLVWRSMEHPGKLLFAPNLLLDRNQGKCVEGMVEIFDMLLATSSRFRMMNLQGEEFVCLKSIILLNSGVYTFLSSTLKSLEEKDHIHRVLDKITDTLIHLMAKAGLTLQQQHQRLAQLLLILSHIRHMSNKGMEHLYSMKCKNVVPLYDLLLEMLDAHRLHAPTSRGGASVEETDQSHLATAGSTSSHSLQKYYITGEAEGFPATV
As to the kind of experiment: Transactivation assay in stably transfected MCF-7 cells (MVLN assay). The format is cell-based. On the set-up: MCF-7 cells endogenously expressing ERα; endogenous in cells; host or cells: MCF-7 stably transfected with vitellogenin-tk-luciferase reporter (MVLN). On the procedure:
To analyse activation of the ERα by diverse tool compounds in a second cellular system, we used MCF-7 cells endogenously expressing ERα and stably transfected with the estrogen-responsive vitellogenin-tk-luciferase reporter plasmid. […]. Luciferase activity was measured after addition of 25 μl steady-Glo in a TopCount. Dose response curves were generated and EC50 values were calculated using Sigma plot.

Data set [2] concerns human cryopreserved hepatocytes. Put plainly: Stability in hepatocytes. The settings on record: maximal theoretical bioavailability. Format: in vitro ADME. The method, then:
The metabolic stability of test compounds with respect to phase 1 and phase 2 metabolisms was investigated by incubation of the compounds with hepatocytes. These investigations were performed for characterisation of compounds in case of phase 2 metabolism is to be expected. […] After analytical workup the concentrations of the test compounds after different incubation periods were related to the initial concentration of the respective test compound (zero hour's time point). The resulting area under the concentration-time-curve of the test compound investigated in the assay is used to derive the respective Fmax value.

The target of data set [3] is T2, ERα (Rattus norvegicus, UniProt P06211).
T2 construct: from tissue; host or cells: uterus of ovariectomized adult female Wistar rats (in vivo)
T2 sequence (P06211 1-600): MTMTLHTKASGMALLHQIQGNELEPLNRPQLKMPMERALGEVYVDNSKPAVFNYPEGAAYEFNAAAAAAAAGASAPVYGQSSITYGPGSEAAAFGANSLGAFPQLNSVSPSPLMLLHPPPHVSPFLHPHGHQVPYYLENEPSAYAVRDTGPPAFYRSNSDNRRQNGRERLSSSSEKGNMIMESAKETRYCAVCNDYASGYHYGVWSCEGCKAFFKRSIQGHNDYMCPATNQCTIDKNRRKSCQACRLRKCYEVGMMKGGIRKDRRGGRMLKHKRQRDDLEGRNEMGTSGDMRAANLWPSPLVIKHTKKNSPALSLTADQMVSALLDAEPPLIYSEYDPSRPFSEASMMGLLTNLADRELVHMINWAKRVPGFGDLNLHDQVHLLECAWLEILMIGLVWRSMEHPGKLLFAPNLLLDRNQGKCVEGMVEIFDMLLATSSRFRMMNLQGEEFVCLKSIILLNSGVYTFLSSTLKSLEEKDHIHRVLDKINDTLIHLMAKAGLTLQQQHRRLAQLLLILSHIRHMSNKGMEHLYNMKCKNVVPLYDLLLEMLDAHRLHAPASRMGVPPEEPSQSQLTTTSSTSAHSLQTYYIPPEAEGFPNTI
As to the kind of experiment: Stimulation of uterine growth in vivo in ovariectomized rats. On the set-up: species or system Wistar rats. The following applies: for uterotrophic activity (increase in relative uterine weight): dose response curves, FIGS. 2-3.

For the next data set, the system named is hepatic gene CaBP. As to the kind of experiment: Induction of the hepatic gene CaBP (hepatic estrogenicity). The format is in vivo. The settings on record: dose response curves, FIGS. 1-3. From the text:
Data regarding the uterine and hepatic activity of example 1 and example 4 in comparison to Ethinylestradiol are shown in FIGS. 1, 2, and 3. Dose response curves describing the increases in relative uterine weight (closed circles) and the induction of the hepatic gene CaBP (open circles) are shown for ethinylestradiol (FIG 1), example 1 (FIG. 2), and example 4 (FIG. 3). […] This may implicate that compounds of example 1 and 4 show lower hepatic estrogenicity if compared to Ethinylestradiol.

The target in data set [4] is T3, estrogen receptor α (ERα) (Homo sapiens, UniProt P03372).
T3 construct: made in house; host or cells: Hi5 insect cells (baculovirus)
Put plainly: Binding to estrogen receptor α (competition with 3H-estradiol). The settings on record: KF = IC50 of test compound / IC50 of estradiol. On the procedure: The ERα protein used in the binding assay was purified from cytosolic fractions of Hi5 cells transfected with recombinant bacuioviruses encoding either the human ERα. Aliquots of cytosolic fractions were stored at −80° C. and had protein concentrations of 5-7 mg/ml (as determined by the BCA method).
30 μl of cytosol were added leading to a final volume of 50 μl per well. […] The protein-bound radioactivity was measured by addition of 200 μl Microszint-40 (Canberra Packard) to each well using a TopCount scintillation counter.

In data set [5] the target is T1, ERα. As to the kind of experiment: Induction of alkaline phosphatase in human endometrial Ishikawa cells. The settings on record: 72 hours, read-out: EC50 Alkaline phoshatase induction, Ishikawa cells. The format is cell-based. On the procedure: Alkaline phosphatase is an estrogen target gene in the normal uterine epithelium as well as in endometrial-derived cancer cells, such as Ishikawa cells. […]. Ishikawa cells (from European collection of cell cultures) were maintained in phenolred-free MEM with 5% FCS, 4 mM glutamine, 1% non, essential amino acids and 100 U/ml penicillin and 100 μg/ml streptomycin. […]. On the third day, the media were removed; cells were washed two times with 50 μl PBS and then frozen at −80° C. for 20 min. After thawing at room temperature for 10 min, cells were incubated with 100 μl of 1-Step PNPP reagent (Pierce) and incubated for 1.5 h at room temperature. OD was measured at 405 nm sing a Polarstar Optima. Dose response curves were generated using and ED50 values were calculated using Sigma plot.

Data set [6] concerns the target T1, ERα. Put plainly: Transactivation assay in U2OS cells. Format: cell-based. The settings on record: U2OS cells transiently transfected with ERα and luciferase reporter, 24 hours.
[7] abbreviates: luciferase reporter, Table 2, read-out: MVLN-Transactivation (EC50 in nM).

As usually defined, the EC50 is the concentration at which the effect is half-maximal.

As for `C[C@]12CCC3c4ccc5[nH]ncc5c4CCC3C1CCC2=O` (some centres unmarked) [Example 2, 2′H-Pyrazolo[3′,4′:3,4]estra-1,3,5(10)-trien-17-one], the EC50 on ERα [1] (setting [7]) is 12.6 nM.
Turning to `C[C@]12CC[C@@H]3c4ccc(O)cc4CC[C@H]3[C@@H]1CC[C@@H]2O` [Estradiol, reference compound], the “Fmax (calculated from hepatocyte stability)” value in data set [2] is reported as 17%.
For the compound `C[C@]12CCC3c4ccc5[nH]nnc5c4CCC3C1CCC2=O` (some centres unmarked) [Example 11, 3′H-Triazolo[4′,5′:3,4]estra-1,3,5(10)-trien-17-on], the EC50 at ERα [1] (setting [7]) was found to be 308 nM.
For `CC[C@]1(O)CCC2C3CCc4c(ccc5[nH]ncc45)C3CC[C@@]21C` (stereo partly drawn) [Example 6, 17α-Ethyl-2′H-pyrazolo[3′,4′:3,4]estra-1,3,5(10)-trien-17β-ol], the EC50 on ERα [1] (setting [7]) came out at 130 nM.
Regarding `CC#C[C@]1(O)CCC2C3CCc4c(ccc5[nH]ncc45)C3CC[C@@]21C` (stereo partly drawn) [Example 8, 17α-(Prop-1-inyl)-2′H-pyrazolo[3′,4′:3,4]estra-1,3,5(10)-trien-17β-ol], on ERα [1] (setting [7]), the EC50 came to 16.5 nM.
For the compound `C=CC[C@]1(O)CCC2C3CCc4c(ccc5[nH]ncc45)C3CC[C@@]21C` (stereo partly drawn) [Example 7, 17α-Allyl-2′H-pyrazolo[3′,4′:3,4]estra-1,3,5(10)-trien-17β-ol], the EC50 on ERα [1] (setting [7]) was determined as 82.6 nM.
For `C[C@]12CCC3c4ccc5[nH]ncc5c4CCC3C1CC[C@@]2(O)C(F)(F)F` (stereo partly drawn) [Example 9, 17α-Trifluoromethyl-2′H-pyrazolo[3′,4′:3,4]estra-1,3,5(10)-trien-17β-ol], at ERα [1] (setting [7]), the EC50 is 77.3 nM.
Regarding `C#C[C@]1(O)CCC2C3CCc4c(ccc5[nH]ncc45)C3CC[C@@]21C` (stereo partly drawn) [Example 4, 17α-Ethinyl-2′H-pyrazolo[3′,4′:3,4]estra-1,3,5(10)-trien-17β-ol], the “uterotrophic activity (increase in relative uterine weight)” value at ERα [3] was “full uterotrophic activity”. The “induction of the hepatic gene CaBP” value with hepatic gene CaBP was “do not stimulate this hepatic gene”. Moreover, at ERα [1] (setting [7]), the concentration for a half-maximal effect (EC50) was 1.01 nM.
`C#C[C@]1(O)CC[C@H]2[C@@H]3CCc4cc(O)ccc4[C@H]3CC[C@@]21C` [Ethinylestradiol, reference compound]: the “induction of the hepatic gene CaBP” value with hepatic gene CaBP is “significant induction of CaBP”.
`C=C[C@]1(O)CCC2C3CCc4c(ccc5[nH]ncc45)C3CC[C@@]21C` (stereo partly drawn) [Example 5, 17α-Vinyl-2′H-pyrazolo[3′,4′:3,4]estra-1,3,5(10)-trien-17β-ol]: the EC50 at ERα [1] (setting [7]) was found to be 3.72 nM.
For the compound `C[C@]12CCC3c4ccc5[nH]ncc5c4CCC3C1CC[C@@H]2O` (stereo partly drawn) [Example 1, 2′H-Pyrazolo[3′,4′:3,4]estra-1,3,5(10)-trien-17β-ol], at ERα [3], the “uterotrophic activity (increase in relative uterine weight)” value is listed as “full uterotrophic activity”. Also, the “ED50 Uterine growth” value at ERα [3] (ovariectomized Wistar rats, subcutaneously daily for 14 days, relative uterine weight) came to 8.25 μg/kg bodyweight. The “ERα binding [KF]” value in data set [4] is 1.6. The EC50 at ERα [5] is 0.759 nM; on ERα [6], 0.082 nM; on ERα [1] (setting [7]), 1.41 nM; at ERα [1] (vitellogenin-tk-luciferase reporter, 24 hours, Table 1, read-out: EC50 ERα transactivation, MVLN assay), 1.42 nM. Also, the “induction of the hepatic gene CaBP” value with hepatic gene CaBP is “do not stimulate this hepatic gene”. In data set [2], the “Fmax (calculated from hepatocyte stability)” value is reported as 34%.
Regarding `C[C@]1(O)CCC2C3CCc4c(ccc5[nH]ncc45)C3CC[C@@]21C` (stereo partly drawn) [Example 3, 17α-Methyl-2′H-pyrazolo[3′,4′:3,4]estra-1,3,5(10)-trien-17β-ol], the EC50 at ERα [1] (setting [7]) is 3.53 nM.
Consider `C[C@]12CCC3c4ccc5[nH]ncc5c4CCC3C1CC[C@@]2(O)C(F)(F)C(F)(F)F` (stereo partly drawn) [Example 10, 17α-Pentafluoroethyl-2′H-pyrazolo[3′,4′:3,4]estra-1,3,5(10)-trien-17β-ol], for which the EC50 at ERα [1] (setting [7]) was determined as 270 nM.
